This note sets out measurements from US20240158368A1, “Pyrrolidine Main Protease Inhibitors as Antiviral Agents” (AbbVie Inc., priority 2022, published 2024).

The target of data set [1] is 229E Mpro (Human coronavirus 229E (HCoV-229E), UniProt P0C6X1). It is filed as biochemical.
A short description of data set [2]: in vitro. Conditions: PAMPA.
Data set [3] is described as follows: in vitro. The following applies: rat, microsomes, pH 7.4.
The test system of data set [4] is 229E virus. In words: organism not typed. It is filed as cell-based. The following applies: Huh-7, read-out: Antiviral 229E EC50 (μM).
Data set [5] has as its target MERS Mpro (Middle East respiratory syndrome-related coronavirus (isolate United Kingdom/H123990006/2012) (MERS-CoV) (Betacoronavirus England 1), UniProt K9N7C7). The experiment in a line: biochemical.
Data set [6] has as its target SARS-CoV-2 Mpro (Severe acute respiratory syndrome coronavirus 2 (2019-nCoV) (SARS-CoV-2), UniProt P0DTD1). The format is biochemical.
The target in data set [7] is OC43 Mpro (Human coronavirus OC43 (HCoV-OC43), UniProt P0C6X6). The format is biochemical.
Sequence of OC43 Mpro (P0C6X6 3247-3549 limits assumed): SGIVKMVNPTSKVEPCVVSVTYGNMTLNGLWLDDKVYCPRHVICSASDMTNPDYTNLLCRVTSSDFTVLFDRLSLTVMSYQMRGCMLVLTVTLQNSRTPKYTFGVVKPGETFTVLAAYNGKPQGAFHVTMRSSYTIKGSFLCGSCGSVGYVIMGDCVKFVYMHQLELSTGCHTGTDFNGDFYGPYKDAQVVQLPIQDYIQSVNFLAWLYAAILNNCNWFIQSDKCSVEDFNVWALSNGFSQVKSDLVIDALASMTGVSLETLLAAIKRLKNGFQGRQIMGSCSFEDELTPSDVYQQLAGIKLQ
In data set [8] the test system is OC43 virus. The experiment in a line: microbe, parasite or virus in culture. The following applies: Betacoronavirus 1, OC43, Huh-7, read-out: Antiviral OC43 EC50 (μM). It is filed as cell-based.
The nature of data set [9]: in vitro. The following applies: human, microsomes, pH 7.4.
Data set [10] concerns the target SARS-CoV-1 Mpro (Severe acute respiratory syndrome coronavirus (SARS-CoV), UniProt P0C6X7). It is filed as biochemical.
In data set [11] the test system is SARS-CoV-2 (strain USA-WA1/2020). In words: microbe, parasite or virus in culture. Conditions: Severe acute respiratory syndrome coronavirus 2; HeLa-ACE2 cells; read-out: Antiviral CoV-2 EC50. The format is cell-based.

Bounds are passed on as bounds.

Sequence of 229E Mpro (P0C6X1 2966-3267 limits assumed): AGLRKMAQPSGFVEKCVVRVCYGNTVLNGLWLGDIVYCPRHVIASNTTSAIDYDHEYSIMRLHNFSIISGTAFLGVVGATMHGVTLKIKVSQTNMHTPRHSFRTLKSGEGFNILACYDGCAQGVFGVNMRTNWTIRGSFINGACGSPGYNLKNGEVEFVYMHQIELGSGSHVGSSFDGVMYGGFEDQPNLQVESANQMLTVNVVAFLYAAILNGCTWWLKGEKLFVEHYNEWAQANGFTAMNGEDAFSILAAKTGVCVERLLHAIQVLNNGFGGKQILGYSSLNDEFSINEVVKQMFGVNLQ
Sequence of MERS Mpro (K9N7C7 3248-3553 limits assumed): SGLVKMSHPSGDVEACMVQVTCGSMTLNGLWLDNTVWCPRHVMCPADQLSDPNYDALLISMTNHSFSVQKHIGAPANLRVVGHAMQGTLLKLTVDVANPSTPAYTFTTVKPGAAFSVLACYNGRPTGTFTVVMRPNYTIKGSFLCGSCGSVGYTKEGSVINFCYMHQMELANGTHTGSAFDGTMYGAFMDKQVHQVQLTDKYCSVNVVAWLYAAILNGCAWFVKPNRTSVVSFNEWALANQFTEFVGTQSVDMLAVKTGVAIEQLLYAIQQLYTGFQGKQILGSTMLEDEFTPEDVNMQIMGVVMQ

As for `Cc1cc(C(=O)N2CCOCC2)c(N2C[C@H](NC(=O)c3cc(=O)[nH]c4c(F)c(F)ccc34)C[C@H]2C)c(C2CC2)c1` [Compound 83], the EC50 was 1.76 nM in data set [1]; 0.029 µM in data set [4]; 1.39 nM in data set [5]; 0.42 nM in data set [6]; 0.42 nM in data set [7]; 0.023 µM in [8]. The compound further had an EC50 in data set [10] of 1.53 nM. In data set [2], the Papp stood at 15.7 ×10⁻⁶ cm/s. Besides, the CLint scaled in data set [3] was 1430 mL/min/kg; in data set [9], 1120 mL/min/kg.
Regarding `COc1cccc2[nH]c(=O)cc(C(=O)N[C@H]3CN(c4c(C(=O)N5CCOCC5)cc(C)cc4C4CC4)C[C@@H]3OC)c12` [Compound 84], the EC50 is 2.35 nM in [1]; 0.141 µM in [4]; 2.44 nM in [5]; 35.1 nM in [11]; 0.6 nM in data set [6]; 0.64 nM in data set [7]. In addition, the EC50 in [8] was determined as 0.019 µM. In [2], the Papp turned out to be 3.6 ×10⁻⁶ cm/s. For the same compound, the CLint scaled in data set [3] is 195 mL/min/kg; in data set [9] it was 120 mL/min/kg.
For the compound `C[C@@H]1C[C@@H](NC(=O)c2cc(=O)[nH]c3c(F)cccc23)CN1c1c(C(=O)N2CCOCC2)cc(C#N)cc1C(F)(F)F` [Compound 30], the EC50 worked out at 1.25 nM in [1]; 0.011 µM in data set [4]; 1.04 nM in [5]; 0.42 nM in data set [6]; 0.58 nM in data set [7]; 0.029 µM in [8]. The same compound showed a Papp in data set [2] of 13.3 ×10⁻⁶ cm/s. In addition, the figures for the CLint scaled in data set [3] and in data set [9] were 303 mL/min/kg and 61.7 mL/min/kg, respectively.
On to `Cc1cc(C(=O)N2CCOCC2)c(N2CC[C@@H](NC(=O)c3cc(=O)[nH]c4c(F)cccc34)C2)c(C2CC2)c1` [Compound 45], for which the EC50 in data set [1] is 1.52 nM; in data set [4] it was 0.0561 µM; in data set [5] it was 0.7 nM; in data set [11] it was 18.6 nM; in [6], 0.42 nM; in data set [7], 0.51 nM. For the same compound, the EC50 in data set [8] is less than 0.03 µM. The Papp in data set [2] worked out at 14.7 ×10⁻⁶ cm/s. Further, the CLint scaled in data set [3] is 942 mL/min/kg; in data set [9], 352 mL/min/kg.
On to `COc1cc(F)cc2[nH]c(=O)cc(C(=O)N[C@@H]3CCN(c4c(C(=O)N5CCOCC5)cc(Br)cc4C(F)(F)F)C3)c12` [Compound 57], for which the EC50 came to 0.88 nM in data set [1]; 0.083 µM in data set [4]; 0.53 nM in [5]; 0.42 nM in data set [6]; 0.42 nM in [7]; 0.095 µM in [8]. Besides, the Papp in [2] was found to be 4.09 ×10⁻⁶ cm/s. Also, the figures for the CLint scaled in data set [3] and in [9] were 437 mL/min/kg and 125 mL/min/kg, respectively.
On to `COc1cccc2[nH]c(=O)cc(C(=O)N[C@@H]3CCN(c4c(C(=O)N5CCOCC5)cc(F)cc4C4CC4)C3)c12` [Compound 79], for which the EC50 in [1] was determined as 2.42 nM; in [4], 0.0284 µM; in [5] it was 1.51 nM; in [11], 38.5 nM; in [6] it was 0.42 nM; in [7], 0.76 nM. For the same compound, the EC50 in data set [8] amounted to 0.02 µM. This compound displayed a Papp in data set [2] of 2.98 ×10⁻⁶ cm/s. In addition, the CLint scaled in data set [3] is 235 mL/min/kg; in [9] it was 31.7 mL/min/kg.
In the case of `O=C(N[C@@H]1CCN(c2c(C(=O)N3CCOCC3)cc(F)cc2C(F)(F)F)C1)c1cc(=O)[nH]c2c(F)cc(F)cc12` [Compound 38], the EC50 in data set [1] is 5.9 nM; in data set [4] it was 0.142 µM; in [5], 2.39 nM; in data set [6], 1.84 nM; in data set [7] it was 9.11 nM; in [8], 0.327 µM. The Papp in [2] came out at 14.5 ×10⁻⁶ cm/s. For the same compound, the CLint scaled was 625 mL/min/kg in data set [3] and 173 mL/min/kg in data set [9].
With `COc1cccc2[nH]c(=O)cc(C(=O)N[C@@H]3CCN(c4c(C(=O)N5CCOCC5)cc(Cl)nc4C4CC4)C3)c12` [Compound 82], the EC50 was 13.5 nM in data set [1]; 1.17 µM in data set [4]; 2.91 nM in data set [5]; 241 nM in data set [11]; 0.99 nM in data set [6]; 1.61 nM in data set [7]. For the same compound, the EC50 in data set [8] came out at 0.083 µM. The same compound returned a Papp in data set [2] of 3.1 ×10⁻⁶ cm/s. Besides, the CLint scaled is 51.7 mL/min/kg in data set [3] and 56.7 mL/min/kg in [9].
On to `O=C(N[C@@H]1CCN(c2c(C(=O)N3CCOCC3)cc(Cl)cc2C(F)(F)F)C1)c1c(F)c(=O)[nH]c2c(F)cccc12` [Compound 55], for which the EC50 in data set [1] amounted to 1.74 nM; in data set [5], 0.84 nM; in data set [11] it was 4.6 nM; in [6], 0.42 nM; in data set [7], 0.42 nM; in [10], 0.56 nM. For the same compound, the Papp in [2] was found to be 18.6 ×10⁻⁶ cm/s. Moreover, the CLint scaled is 318 mL/min/kg in data set [3] and 157 mL/min/kg in data set [9].
On to `C[C@@H]1C[C@@H](NC(=O)c2cc(=O)[nH]c3c(F)c(F)ccc23)CN1c1c(C(=O)N2CCOCC2)cc(C#N)cc1C(F)(F)F` [Compound 31], for which the EC50 in data set [1] stood at 2.81 nM; in [4], 0.073 µM; in data set [5], 1.94 nM; in data set [11] it was 8.8 nM; in data set [6], 0.5 nM; in data set [7], 1.77 nM. The EC50 in data set [8] is 0.141 µM. The Papp in [2] was 11.8 ×10⁻⁶ cm/s. The intrinsic metabolic clearance (CLint scaled) in data set [3] was 457 mL/min/kg; in data set [9] it was 91.7 mL/min/kg.
In the case of `Cc1cc(C(=O)N2CCOCC2)c(N2C[C@H](NC(=O)c3cc(=O)[nH]c4c(F)c(F)ccc34)CC2=O)c(C2CC2)c1` [Compound 75], the EC50 in data set [1] came out at 6.11 nM; in [5], 1.72 nM; in data set [11] it was 23.1 nM; in [6], 0.63 nM; in [7], 2.25 nM; in [10], 0.72 nM. In data set [2], this compound yielded a Papp of 2.46 ×10⁻⁶ cm/s. Also, the CLint scaled in data set [3] is less than 55 mL/min/kg; in [9], less than 33.3 mL/min/kg.
Regarding `COc1cccc2[nH]c(=O)cc(C(=O)N[C@@H]3CCN(c4c(C5CC5)ccc(F)c4C(=O)N4CCOCC4)C3)c12` [Compound 78], the EC50 in [1] turned out to be 1.99 nM; in data set [4], 0.0481 µM; in data set [5], 2.31 nM; in data set [11], 460 nM; in data set [6], 1.42 nM; in data set [7], 1.45 nM. In [8], the EC50 stood at 0.0978 µM. This compound also displayed a Papp in [2] of 2.46 ×10⁻⁶ cm/s. The results for the CLint scaled in data set [3] and in data set [9] were 418 mL/min/kg and 188 mL/min/kg, respectively.
With `CN1CCN(C(=O)c2cc(Br)cc(C(F)(F)F)c2N2CC[C@@H](NC(=O)c3cc(=O)[nH]c4c(F)cccc34)C2)CC1` [Compound 63], the EC50 in data set [1] worked out at 1.99 nM; in data set [5], 1.06 nM; in [11] it was 12.7 nM; in data set [6], 0.56 nM; in data set [7], 0.91 nM; in data set [10], 1.27 nM. This compound yielded a Papp in data set [2] of 5.6 ×10⁻⁶ cm/s. Besides, the values for the intrinsic metabolic clearance (CLint scaled) in data set [3] and in data set [9] were 722 mL/min/kg and 357 mL/min/kg, respectively.
`O=C(N[C@@H]1CCN(c2c(C(=O)N3CCOCC3)cc(F)cc2C2CC2)C1)c1cc(=O)[nH]c2c(F)cccc12` [Compound 46]: the EC50 in data set [1] was found to be 2.76 nM; in data set [4], 0.073 µM; in data set [5] it was 1.75 nM; in data set [11], 20.9 nM; in data set [6], 0.47 nM; in data set [7], 0.81 nM. The EC50 in data set [8] turned out to be 0.049 µM. Besides, the Papp in [2] was determined as 15.2 ×10⁻⁶ cm/s. Moreover, the CLint scaled in data set [3] was 897 mL/min/kg; in data set [9] it was 53.3 mL/min/kg.
